In series [1] the test system is 16 human microsomal P450 enzymes. The series is described as follows: Probing MONACRA metabolism by 16 recombinant human P450 enzymes. It is filed as biochemical. As to conditions: CYP1A2, 2A6, 2B6, 2C8, 2C9, 2C19, 2D6, 2E1, 2J2, 3A4, 3A5, 4A11, 4F2, 4F3A, 4F3B, 4F12. The method, then:
Based on these observations, we developed a high-throughput automated assay applicable for studying SSPs of MONACRA metabolism by microsomal P450 enzymes. In this procedure, the incubation mixtures containing an NADPH-generating system and various substrate concentrations are placed in a multiwell plate and preincubated at 30°C in a thermostated shaker. The reaction is started by adding microsomal suspension to the final concentration of 0.3–1 mg/ml of microsomal protein or 0.02–0.1 µM of recombinant P450 enzymes in Supersomes. Following the incubation for 20 min at 30°C, the reaction is quenched by adding trichloroacetic acid (final concentration […]). After supplementing the wells with Na-glycine buffer (pH 10.4, final concentration 2.1 M), the plates are subjected to scanning the fluorescence spectra with excitation at 375 nm. This assay, which is described in detail in Materials and Methods, allows reliable detection of the concentrations of HONACRA as low as 0.1 µM.
We used the high-throughput activity assay described above to probe MONACRA metabolism by 16 human microsomal P450 enzymes, namely CYP1A2, CYP2A6, CYP2B6, CYP2C8, CYP2C9, CYP2C19, CYP2D6, CYP2E1, CYP2J2, CYP3A4, CYP3A5, CYP4A11, CYP4F2, CYP4F3A, CYP4F3B, and CYP4F12. […]

For series [2], the system named is monkey liver microsomes (MLM). The series is described as follows: MONACRA O-demethylation by monkey liver microsomes, FA-AAA formaldehyde assay. The series is classed as in vitro ADME, cynomolgus monkey (Macaca fascicularis). The following applies: sum of two Michaelis–Menten components. The text has this:
(§1) To probe if MONACRA can be metabolized to hydroxy-naphthyl acrylic acid (HONACRA) by liver microsomes, we utilized our high-throughput fluorimetric assay of formed formaldehyde with acetoacetanylide (FA-AAA assay, [34]). In our initial experiments, we used cynomolgus monkey (Macaca fascicularis) liver microsomes (MLM).
(§2) Figure 3: O-demethylation of 3-(6-methoxynaphthalen-2-yl)acrylic acid (MONACRA) by monkey liver microsomes (MLM). […] Panel B exemplifies the substrate saturation profile of MONACRA demethylation by MLM (0.98 mg/ml) determined by formed formaldehyde with acetoacetanylide (FA-AAA) assay with 20-min incubation at 30°C. The datasets shown in the figures represent averages of the results of two individual experiments, and the error bars indicate the standard deviations.
(§3) MONACRA demethylation was monitored by quantifying the amount of formed formaldehyde using a high-throughput fluorimetric assay based on the Hantzsch reaction with acetoacetanilide. The plates were prepared as described above. The assays were executed as described earlier, except for monitoring the formation of DPDL by the spectra of its emission with excitation at 395 nm instead of the spectra of excitation, as it was described earlier. This modification of the assay procedure was done because of an ample overlap of the spectra of excitation of MONACRA and HONACRA with that of DPDL.
For orientation: Liver microsomes are vesicles of endoplasmic reticulum, rich in cytochrome P450 enzymes.

Assay in series [3]: as above
It is filed as in vitro ADME, cynomolgus monkey (Macaca fascicularis). As to conditions: cynomolgus monkey, liver microsomes, MLM, FA assay, 20-min incubation at 30°C.
Excerpt: as §1, §2, §3

By Km is commonly meant the substrate concentration at which the rate is half of its maximum.

SMILES strings stand for the structures. Entries after “also recorded” stand apart in the source; their conditions may differ. Like-named read-outs stand apart in the source and are kept apart here.

Turning to `COc1ccc2cc(C=CC(=O)O)ccc2c1` [MONACRA, 3-(6-methoxynaphthalen-2-yl)acrylic acid], the “activity in MONACRA demethylation among 16 recombinant human P450 enzymes” value in series [1] is “noticeable demethylation activity only with CYP4A11 and CYP1A2; also recorded: detectable activity in MONACRA demethylation was observed only with CYP4A11, CYP1A2, and CYP2C8”. In series [2], the “total Vmax” value is 17.2 mol FA per mol of NADPH-cytochrome P450 reductase (CPR) per minute. Further, the Km at 20 min was found to be 28.4 µM in series [3] (read-out: KM, first of two Michaelis–Menten components) and 260 µM in series [3] (read-out: KM, second of two Michaelis–Menten components).
